# According to patent US20060069132A1, “Azolecarboxamide herbicides” (priority 2004, published 2006):
# What was measured:
# lambsquarters = assay: Test B pre-/postemergence herbicide test; assay type: in vivo, Chenopodium album
# Outline: (§1)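 Greenhouse pot assay with simultaneous preemergence (treated seed) and postemergence (2–18 cm seedlings) applications of surfactant-containing, non-phytotoxic solvent formulations. Response scored visually 13–15 days later on a 0–100 scale, 100 meaning complete control.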
# barnyardgrass [1] = assay: Test A pre-/postemergence herbicide test; assay type: in vivo, Echinochloa crus-galli; settings: for Plant response rating, Barnyardgrass: Postemergence; for Barnyardgrass plant response rating: Preemergence
# Outline: (§2)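 Sandy loam soil given preemergence directed spray; plants at 2 to 10 cm, one- to two-leaf stage, sprayed to runoff postemergence, compounds in non-phytotoxic solvent with surfactant. Injury rated visually versus untreated controls after about ten greenhouse days, 0 (no effect) to 100 (complete control); dash means not tested.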
# [2] = system: small flower umbrella sedge; assay: Test B flooded paddy test; assay type: in vivo, Cyperus difformis; settings: scale 0 to 100 (0 no effect, 100 complete control)
# Outline: (§3)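 Read-out: visual comparison with controls, scored 0 to 100, where 100 means complete control and 0 no effect. Formulated chemicals were applied postemergence to plants 2–18 cm tall (1- to 4-leaf), or to flooded-paddy plants at the 2-leaf stage, then held 13 to 15 days under glass.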
# redroot pigweed = assay: Test A pre-/postemergence herbicide test; assay type: in vivo, Amaranthus retroflexus; settings: for Plant response rating, Pigweed: Postemergence; for Pigweed plant response rating: Preemergence
# Outline: as §2
# velvetleaf [3] = assay: Test A pre-/postemergence herbicide test; assay type: in vivo, Abutilon theophrasti; settings: for Velvetleaf plant response rating: Preemergence
# Outline: as §2
# wheat = assay: Test B postemergence herbicide test; assay type: in vivo, Triticum aestivum; design: key to Wheat plant response rating: 0 = no effect, 100 = complete control
# Outline: as §3
# morningglory [4] = assay: Test B pre-/postemergence herbicide test; assay type: in vivo, Ipomoea coccinea
# Outline: (§4)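 Pre: seeds sown, then sprayed. Post: 1–4-leaf plants (2–18 cm) sprayed at the same time. Paddy: flooded, treated at 2-leaf stage. Formulation: non-phytotoxic solvent with surfactant. Greenhouse 13–15 days; visual 0–100 score relative to controls.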
# giant foxtail [5] = assay: Test A pre-/postemergence herbicide test; assay type: in vivo, Setaria faberi; settings: for Plant response rating, Foxtail, Giant: Postemergence; for Foxtail, Giant plant response rating: Preemergence
# Outline: as §2
# large crabgrass [6] = assay: Test B pre-/postemergence herbicide test; assay type: in vivo, Digitaria sanguinalis
# Outline: as §1
# barnyardgrass [7] = assay: Test B flooded paddy test; assay type: in vivo, Echinochloa crus-galli; settings: scale 0 to 100 (0 no effect, 100 complete control)
# Outline: as §3
# pigweed = assay: Test B pre-/postemergence herbicide test; assay type: in vivo, Amaranthus retroflexus
# Outline: as §1
# Surinam grass = assay: Test B pre-/postemergence herbicide test; assay type: in vivo, Urochloa decumbens
# Outline: as §1
# giant foxtail [8] = assay: Test B pre-/postemergence herbicide test; assay type: in vivo, Setaria faberi
# Outline: as §1
# large crabgrass [9] = assay: Test A pre-/postemergence herbicide test; assay type: in vivo, Digitaria sanguinalis; settings: for Plant response rating, Crabgrass, Large: Postemergence; for Crabgrass, Large plant response rating: Preemergence
# Outline: as §2
# rice = assay: Test B flooded paddy test; assay type: in vivo, Oryza sativa; settings: scale 0 to 100 (0 no effect, 100 complete control)
# Outline: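 Greenhouse test; postemergence application to plants at 1–4 leaves (2–18 cm); paddy species at 2 leaves; evaluated visually vs controls at 13–15 days; scale 0–100 (100 = complete control).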
# velvetleaf [10] = assay: Test B pre-/postemergence herbicide test; assay type: in vivo, Abutilon theophrasti
# Outline: as §1
# blackgrass = assay: Test B postemergence herbicide test; assay type: in vivo, Alopecurus myosuroides
# Outline: as §3
# corn = assay: Test B pre-/postemergence herbicide test; assay type: in vivo, Zea mays
# Outline: as §1
# morningglory [11] = assay: Test A pre-/postemergence herbicide test; assay type: in vivo, Ipomoea spp.; settings: for Plant response rating, Morningglory: Postemergence; for Morningglory plant response rating: Preemergence
# Outline: as §2
# ducksalad = assay: Test B flooded paddy test; assay type: in vivo, Heteranthera limosa; settings: scale 0 to 100 (0 no effect, 100 complete control)
# Outline: as §3
# wild oat = assay: Test B postemergence herbicide test; assay type: in vivo, Avena fatua
# Outline: as §3
# cocklebur = assay: Test B pre-/postemergence herbicide test; assay type: in vivo, Xanthium strumarium
# Outline: as §4
# barnyardgrass [12] = assay: Test B pre-/postemergence herbicide test; assay type: in vivo, Echinochloa crus-galli
# Outline: as §4
# [13] = Postemergence, 250 g ai/ha, scale 0 (no effect) to 100 (complete control)
# [14] = postemergence, 62 g ai/ha, scale 0 to 100
# [15] = 500 g ai/ha, 0 to 100 scale, 0 no effect, 100 complete control
# [16] = 2000 g ai/ha, 0 to 100 scale, 0 no effect, 100 complete control
# [17] = 500 g ai/ha, visual rating, 0 to 100 scale (0 no effect, 100 complete control)
# [18] = 1000 g ai/ha, visual rating, 13 to 15 days
# [19] = Postemergence, 500 g ai/ha, scale 0 (no effect) to 100 (complete control)
# [20] = postemergence, 125 g ai/ha, scale 0 to 100
smiles,measurement,setting,value
CN1Cc2c(NC(=O)c3cc(C(C)(C)C)nn3C)cccc2C1=O [Compound 54],Lambsquarters plant response rating,lambsquarters; [13],40
same,Lambsquarters plant response rating,lambsquarters; [14],40
same,"Plant response rating, Barnyardgrass",barnyardgrass [1]; [15],10
same,"Plant response rating, Barnyardgrass",barnyardgrass [1]; [16],10
same,Barnyardgrass plant response rating,barnyardgrass [1]; [17],5
same,Barnyardgrass plant response rating,barnyardgrass [1]; [16],25
same,"Sedge, Umbrella plant response rating",[2]; [18],0
same,"Plant response rating, Pigweed",redroot pigweed; [15],20
same,"Plant response rating, Pigweed",redroot pigweed; [16],20
same,Pigweed plant response rating,redroot pigweed; [17],10
same,Pigweed plant response rating,redroot pigweed; [16],65
same,"Plant response rating, Velvetleaf","velvetleaf [3]; Postemergence, 2000 g ai/ha, 0 to 100 scale, 0 no effect, 100 complete control",5
same,Velvetleaf plant response rating,velvetleaf [3]; [17],0
same,Velvetleaf plant response rating,velvetleaf [3]; [16],0
same,Wheat plant response rating,"wheat; 250 g ai/ha, scale 0 to 100, 0 no effect, 100 complete control, preemergence",0
same,Wheat plant response rating,wheat; [13],0
same,Wheat plant response rating,wheat; [14],0
same,Morningglory plant response rating,morningglory [4]; [14],10
same,"Plant response rating, Foxtail, Giant",giant foxtail [5]; [15],10
same,"Plant response rating, Foxtail, Giant",giant foxtail [5]; [16],5
same,"Foxtail, Giant plant response rating",giant foxtail [5]; [17],0
same,"Foxtail, Giant plant response rating",giant foxtail [5]; [16],15
same,"Crabgrass, Large plant response rating",large crabgrass [6]; [13],0
same,"Crabgrass, Large plant response rating",large crabgrass [6]; [14],0
same,Barnyardgrass plant response rating,barnyardgrass [7]; [18],0
same,Pigweed plant response rating,pigweed; [13],10
same,Pigweed plant response rating,pigweed; [14],0
same,Surinam Grass plant response rating,Surinam grass; [14],0
same,"Foxtail, Giant plant response rating",giant foxtail [8]; [13],0
same,"Foxtail, Giant plant response rating",giant foxtail [8]; [14],0
same,"Plant response rating, Crabgrass, Large",large crabgrass [9]; [15],10
same,"Plant response rating, Crabgrass, Large",large crabgrass [9]; [16],15
same,"Crabgrass, Large plant response rating",large crabgrass [9]; [17],25
same,"Crabgrass, Large plant response rating",large crabgrass [9]; [16],35
same,Rice plant response rating,rice; [18],0
same,Velvetleaf plant response rating,velvetleaf [10]; [13],0
same,Velvetleaf plant response rating,velvetleaf [10]; [14],0
same,Blackgrass plant response rating,blackgrass; [13],0
same,Blackgrass plant response rating,blackgrass; [14],0
same,Corn plant response rating,corn; [14],10
same,"Plant response rating, Morningglory",morningglory [11]; [15],0
same,"Plant response rating, Morningglory",morningglory [11]; [16],10
same,Morningglory plant response rating,morningglory [11]; [17],0
same,Morningglory plant response rating,morningglory [11]; [16],15
same,Ducksalad plant response rating,ducksalad; [18],0
same,"Oat, Wild plant response rating",wild oat; [13],0
same,"Oat, Wild plant response rating",wild oat; [14],0
same,Cocklebur plant response rating,cocklebur; [13],10
same,Cocklebur plant response rating,cocklebur; [14],10
same,Barnyardgrass plant response rating,barnyardgrass [12]; [13],0
same,Barnyardgrass plant response rating,barnyardgrass [12]; [14],0
Cc1nn(C(C)(C)C)nc1C(=O)Nc1cccc(C(=O)N2CC=CC2)n1 [Compound 441],Lambsquarters plant response rating,lambsquarters; [19],20
same,Lambsquarters plant response rating,lambsquarters; [20],20
same,"Sedge, Umbrella plant response rating",[2]; 125 g ai/ha,0
same,Wheat plant response rating,"wheat; 500 g ai/ha, scale 0 to 100, 0 no effect, 100 complete control, preemergence",30
same,Wheat plant response rating,wheat; [19],30
same,Wheat plant response rating,wheat; [20],20
same,Morningglory plant response rating,morningglory [4]; [19],0
same,Morningglory plant response rating,morningglory [4]; [20],0
same,"Crabgrass, Large plant response rating",large crabgrass [6]; [19],0
same,"Crabgrass, Large plant response rating",large crabgrass [6]; [20],0
same,Barnyardgrass plant response rating,barnyardgrass [7]; 125 g ai/ha,0
same,Pigweed plant response rating,pigweed; [19],20
same,Pigweed plant response rating,pigweed; [20],20
same,Surinam Grass plant response rating,Surinam grass; [19],0
same,Surinam Grass plant response rating,Surinam grass; [20],0
same,"Foxtail, Giant plant response rating",giant foxtail [8]; [19],0
same,"Foxtail, Giant plant response rating",giant foxtail [8]; [20],0
same,Rice plant response rating,rice; 125 g ai/ha,0
same,Velvetleaf plant response rating,velvetleaf [10]; [19],0
same,Velvetleaf plant response rating,velvetleaf [10]; [20],0
same,Blackgrass plant response rating,blackgrass; [19],40
same,Blackgrass plant response rating,blackgrass; [20],20
same,Corn plant response rating,corn; [19],30
same,Corn plant response rating,corn; [20],0
same,Ducksalad plant response rating,ducksalad; 125 g ai/ha,0
same,"Oat, Wild plant response rating",wild oat; [19],40
same,"Oat, Wild plant response rating",wild oat; [20],30
same,Cocklebur plant response rating,cocklebur; [19],10
same,Cocklebur plant response rating,cocklebur; [20],10
same,Barnyardgrass plant response rating,"barnyardgrass [12]; Postemergence, 125 g ai/ha, scale 0 (no effect) to 100 (complete control)",0
same,Barnyardgrass plant response rating,barnyardgrass [12]; [19],0
